Test results as given in patent US20250134913A1, “ORAL DOSAGE FORMS OF TRβ AGONIST VK2809 FOR THE TREATMENT OF LIVER DISORDERS AND METHODS OF PREPARING THE SAME” (Viking Therapeutics, Inc., priority 2022, published 2025).
≈ marks a conversion by molar mass, not a printed value.

Experiments:
Format in all cases: physicochemical
[1] = Closed stability packaging study of spray dried dispersions by HPLC; settings: Stored at Room Temp.
Method: Due to the extensive degradation observed after 2 weeks at 40° C./75% RH open, a closed with desiccant condition stability study was initiated for Compound 1 SDDs. Samples were evaluated for stability at 2 weeks, 6 weeks, and 3 months when stored in 4 mL scintillation vials and sealed in 60 cc HDPE bottles with heat induction sealing and 0.5 g desiccant.
Chemical stability of Compound 1 SDDs after 2 weeks under closed conditions was evaluated by HPLC using the method provided herein in Table 4. […] All SDDs containing cellulosic polymers show the same growth of an impurity after 2 weeks at 40/75 closed. Upon closer inspection, this impurity is present in the in-going API at a level that was below the threshold used for integration. […] Further evidence of unknown degradants that may form during manufacture and co-elute with known synthetic impurities was observed. Closed stability degradation data at two weeks is provided in Table 6, while closed stability degradation data at six weeks is provided in Table 7. Additionally, no changes in particle morphology and crystallinity for the SDDs after 6 weeks at 40° C./75% RH were observed.

[2] = Closed stability packaging study of PVP-VA SDDs by HPLC; settings: Stored at Room Temp.
Method: Chemical stability of PVP-VA-containing SDDs of Compound 1 under closed conditions was evaluated by HPLC using the method provided herein in Table 4.

[3] = physchem
Method: The amorphous solubility of amorphous Compound 1 was determined by slow addition of the API from an organic stock solution into the aqueous medium of interest. When the amorphous solubility was reached, a drug rich phase formed and was measured by detection by scattering of UV/Visible light and/or by dynamic light scattering (DLS).
The solubility of amorphous Compound 1 was evaluated in PBS at pH 6.5 alone and with 0.5% simulated intestinal fluid (SIF). […] The onset of scattering in the SIF containing media occurred after 180-210 μg/mL Compound 1. […] This is consistent with the initial solubility testing where the crystalline solubility in PBS in the absence of bile salts is exceedingly low.

[4] = Open stability of spray dried dispersions by HPLC; settings: Stored at Room Temp.
Method: The stability samples were tested using H-PLC using the method in Table 4.
The stability samples were tested for assay and related substances. […] This is mainly due to an API process-related impurity.

[5] = Gastric-to-intestinal buffer (G-IB) transfer non-sink dissolution test
Method: The SDDs were evaluated in a non-sink dissolution test designed to monitor dissolution rate, as well as inhibition of crystallization, on transfer from simulated gastric to simulated intestinal media. For the gastric-to-intestinal buffer (G-IB) transfer dissolution test, pH 2 (“gastric”; “G”) media was added to each sample at a target dose concentration of 1000 μg Compound 1/mL. After 30 minutes of exposure to gastric media, concentrated simulated intestinal buffer was added to reach a final composition of 0.5% SIF in PBS, pH 6.5 at half the dose concentration (500 μg Compound 1/mL). This dose concentration was selected at twice the estimated amorphous solubility in an attempt to discriminate on dissolution rate and sustainment of supersaturation simultaneously. The concentration was monitored by UV fiber optic probes in situ (stir rate: 100 revolutions per minute) as well as being assessed by either microcentrifugation (15,800×g) or ultracentrifugation (300,000×g). The microcentrifuge separated the precipitate (undissolved drug) and total solubilized drug. Total solubilized drug consists of three solubilized species: freely solubilized drug (“free drug”), drug associated with bile salt micelles (“micelle bound drug”), and drug in small aggregate roughly 50-300 nm in size (“colloidal drug”). The ultracentrifuge further separates the colloidal drug and the supernatant contains only free drug and micelle bound drug. These three species have different activities in vivo and can be used to help differentiate formulations. Free drug is the smallest species and is the only species considered to partition directly into the cell membrane of the epithelium. Micelle bound drug can cross the unstirred mucous boundary layer and source free drug once a concentration gradient has been created by freely solubilized drug being absorbed. Finally, the drug-polymer colloids are a source of rapidly dissolving drug and may, in some cases, penetrate the unstirred mucous boundary layer (Stewart et al. Mol. Pharmaceutics, 2017, 12, 2437-2449)
All SDD formulations containing enteric polymers reached the amorphous solubility in intestinal buffer within 10 minutes. […] The exact reason for this shift is currently unknown. It may be attributable to detector saturation, arising from the undissolved solids, or a specific interaction between the drug and polymer in solution.

[6] = Stability study of tablet formulations; settings: Stored at Room Temp.
Method: Tablet formulations were subjected to a stability study. Tablets were packaged in heat sealed HDPE bottles with minimal headspace and stored in temperature-controlled stability chambers at 50° C., 40° C., and 25° C., and 5° C. Humidity in the chambers was either controlled or allowed to be at ambient humidity. The conditions are listed for each particular formulation in Table 11 below.

[7] = Equilibrium solubility of crystalline Compound 1 (supernatant concentration after ultracentrifugation); settings: 37° C.
Description: Experimental values for solubility, listed in Table 2, were obtained by measuring supernatant concentrations after centrifugation at 386,000×g.

## Cc1cc(OC[P@@]2(=O)OCC[C@@H](c3cccc(Cl)c3)O2)cc(C)c1Cc1ccc(O)c(C(C)C)c1 [Compound 1]
[1]; 2 week analysis
  Compound 1 Relative abundance: 97.07%
  Impurities Relative abundance: 2.95%
[1]; 6 week analysis
  Compound 1 Relative abundance: 97.70%
  Impurities Relative abundance: 2.33%
[2]
  Compound 1 Relative abundance: 97.54%
  Impurities Relative abundance: 2.33%
[3]; 37 °C, pH 6.5, fassif, kinetic from dmso stock
  solubility: 180 to 210 µg/mL (≈ 350 to 408 µM)
[3]; pH 6.5
  Amorphous solubility behaviour: precipitated as soon as the stock solution was introduced to the medium
[4]
  Compound 1 Relative abundance: 97.61%
  Impurities Relative abundance: 2.47%
[5]; 0.5% SIF in PBS pH 6.5, 10 min, microcentrifuge, dose 500 μg/mL
  Concentration, IB 10 min, micro: 39 μg Compound 1/mL
[5]; 0.5% SIF in PBS pH 6.5, 10 min, ultracentrifuge, dose 500 μg/mL
  Concentration, IB 10 min, ultra: 49 μg Compound 1/mL
[5]; 0.5% SIF in PBS pH 6.5, 90 min, microcentrifuge, dose 500 μg/mL
  Concentration, IB 90 min, micro: 88 μg Compound 1/mL
[5]; 0.5% SIF in PBS pH 6.5, 90 min, ultracentrifuge, dose 500 μg/mL
  Concentration, IB 90 min, ultra: 88 μg Compound 1/mL
[5]; gastric media pH 2, 20 min, microcentrifuge, dose 1000 μg/mL
  Concentration, G 20 min, micro: 0 μg Compound 1/mL
[6]; 2 month analysis
  Compound 1 Relative abundance: 97.22%
  Impurities Relative abundance: 2.78%
[6]; 3 month analysis
  Compound 1 Relative abundance: 97.45%
  Impurities Relative abundance: 2.55%
[7]; 0.01N HCl, 90 min
  Ultracentrifuge Concentration: <0.05 μg Compound 1/mL
[7]; 0.01N HCl, 20 hours
  Ultracentrifuge Concentration: <0.05 μg Compound 1/mL
[7]; 0.5% Simulated intestinal fluid (SIF) in PBS, pH 6.5, 90 min
  Ultracentrifuge Concentration: 92 μg Compound 1/mL
[7]; 0.5% Simulated intestinal fluid (SIF) in PBS, pH 6.5, 20 hours
  Ultracentrifuge Concentration: 87 μg Compound 1/mL
[7]; PBS, pH 6.5, 90 min
  Ultracentrifuge Concentration: <0.05 μg Compound 1/mL
[7]; PBS, pH 6.5, 20 hours
  Ultracentrifuge Concentration: 0.6 μg Compound 1/mL
